Test results reported in PubChem BioAssay AID1918947 (Molecular Pharmacology Branch, DTP, NCI, 2023).

Tested on: A498 complex spheroid viability
Assay: Anticancer human tumor A498 cell line growth inhibition;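 further: spheroids exposed to agents for seven days before readout; 100% = DMSO vehicle-treated spheroids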
Conditions: second compound 0.316 µM; first compound 0.000316 µM; stronger effect = lower value
Summary of the method: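 Drug combinations with the LSD1 inhibitor iadademstat tested on tumor cells co-cultured as spheroids with endothelial cells and mesenchymal stem cells. Concentrations descended in half-log increments from clinical Cmax or 10 microM.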

Compound | viability, T/C
CC(C)CC(NC(=O)C(Cc1ccccc1)NC(=O)c1cnccn1)B(O)O (configuration not stated) + NC1CC1c1ccc(-c2cccc(O)c2)cc1 | 109%

Same assay, conditions: second compound 0.316 µM; first compound 0.001 µM; stronger effect = lower value

Compound | viability, T/C
Cn1ncnc1C1c2n[nH]c(=O)c3cc(F)cc(c23)NC1c1ccc(F)cc1 (configuration not stated) + NC1CCC(NC2CC2c2ccccc2)CC1 | 95.5%
CC(C)CC(NC(=O)C(Cc1ccccc1)NC(=O)c1cnccn1)B(O)O (configuration not stated) + NC1CC1c1ccc(-c2cccc(O)c2)cc1 | 21.9%

Same assay, conditions: second compound 0.316 µM; first compound 0.00316 µM; stronger effect = lower value

Compound | viability, T/C
Cn1ncnc1C1c2n[nH]c(=O)c3cc(F)cc(c23)NC1c1ccc(F)cc1 (configuration not stated) + NC1CCC(NC2CC2c2ccccc2)CC1 | 95%
CC(C)CC(NC(=O)C(Cc1ccccc1)NC(=O)c1cnccn1)B(O)O (configuration not stated) + NC1CC1c1ccc(-c2cccc(O)c2)cc1 | 3.05%
O=C(C=Cn1cnc(-c2cc(C(F)(F)F)cc(C(F)(F)F)c2)n1)NNc1cnccn1 + NC1CCC(NC2CC2c2ccccc2)CC1 | 66.7%
COc1cc(Nc2ncc3c(n2)-c2ccc(Cl)cc2C(c2c(F)cccc2OC)=NC3)ccc1C(=O)O + NC1CCC(NC2CC2c2ccccc2)CC1 | 89.6%

Same assay, conditions: second compound 0.316 µM; first compound 0.01 µM; stronger effect = lower value

Compound | viability, T/C
Cn1ncnc1C1c2n[nH]c(=O)c3cc(F)cc(c23)NC1c1ccc(F)cc1 (configuration not stated) + NC1CCC(NC2CC2c2ccccc2)CC1 | 89%
CC(C)CC(NC(=O)C(Cc1ccccc1)NC(=O)c1cnccn1)B(O)O (configuration not stated) + NC1CC1c1ccc(-c2cccc(O)c2)cc1 | 1.15%
O=C(C=Cn1cnc(-c2cc(C(F)(F)F)cc(C(F)(F)F)c2)n1)NNc1cnccn1 + NC1CCC(NC2CC2c2ccccc2)CC1 | 44.4%
COc1cc(Nc2ncc3c(n2)-c2ccc(Cl)cc2C(c2c(F)cccc2OC)=NC3)ccc1C(=O)O + NC1CCC(NC2CC2c2ccccc2)CC1 | 80.1%

Same assay, conditions: second compound 0.316 µM; first compound 0.0316 µM; stronger effect = lower value

Compound | viability, T/C
Cn1ncnc1C1c2n[nH]c(=O)c3cc(F)cc(c23)NC1c1ccc(F)cc1 (configuration not stated) + NC1CCC(NC2CC2c2ccccc2)CC1 | 85.7%
CC(C)CC(NC(=O)C(Cc1ccccc1)NC(=O)c1cnccn1)B(O)O (configuration not stated) + NC1CC1c1ccc(-c2cccc(O)c2)cc1 | 0.51%
O=C(C=Cn1cnc(-c2cc(C(F)(F)F)cc(C(F)(F)F)c2)n1)NNc1cnccn1 + NC1CCC(NC2CC2c2ccccc2)CC1 | 33.5%
COc1cc(Nc2ncc3c(n2)-c2ccc(Cl)cc2C(c2c(F)cccc2OC)=NC3)ccc1C(=O)O + NC1CCC(NC2CC2c2ccccc2)CC1 | 74.5%

Same assay, conditions: second compound 0.316 µM; first compound 0.1 µM; stronger effect = lower value

Compound | viability, T/C
Cn1ncnc1C1c2n[nH]c(=O)c3cc(F)cc(c23)NC1c1ccc(F)cc1 (configuration not stated) + NC1CCC(NC2CC2c2ccccc2)CC1 | 90.9%
CC(C)CC(NC(=O)C(Cc1ccccc1)NC(=O)c1cnccn1)B(O)O (configuration not stated) + NC1CC1c1ccc(-c2cccc(O)c2)cc1 | 0.37%
O=C(C=Cn1cnc(-c2cc(C(F)(F)F)cc(C(F)(F)F)c2)n1)NNc1cnccn1 + NC1CCC(NC2CC2c2ccccc2)CC1 | 31.2%
COc1cc(Nc2ncc3c(n2)-c2ccc(Cl)cc2C(c2c(F)cccc2OC)=NC3)ccc1C(=O)O + NC1CCC(NC2CC2c2ccccc2)CC1 | 63%

Same assay, conditions: second compound 0.316 µM; first compound 0.316 µM; stronger effect = lower value

Compound | viability, T/C
O=C(C=Cn1cnc(-c2cc(C(F)(F)F)cc(C(F)(F)F)c2)n1)NNc1cnccn1 + NC1CCC(NC2CC2c2ccccc2)CC1 | 24.1%
COc1cc(Nc2ncc3c(n2)-c2ccc(Cl)cc2C(c2c(F)cccc2OC)=NC3)ccc1C(=O)O + NC1CCC(NC2CC2c2ccccc2)CC1 | 50.5%

Same assay, conditions: second compound 0.316 µM; first compound 1 µM; stronger effect = lower value

Compound | viability, T/C
O=C(C=Cn1cnc(-c2cc(C(F)(F)F)cc(C(F)(F)F)c2)n1)NNc1cnccn1 + NC1CCC(NC2CC2c2ccccc2)CC1 | 23.4%
COc1cc(Nc2ncc3c(n2)-c2ccc(Cl)cc2C(c2c(F)cccc2OC)=NC3)ccc1C(=O)O + NC1CCC(NC2CC2c2ccccc2)CC1 | 45.9%

Same assay, conditions: second compound 1 µM; first compound 0.000316 µM; stronger effect = lower value

Compound | viability, T/C
Cn1ncnc1C1c2n[nH]c(=O)c3cc(F)cc(c23)NC1c1ccc(F)cc1 (configuration not stated) + NC1CCC(NC2CC2c2ccccc2)CC1 | 84.2%
CC(C)CC(NC(=O)C(Cc1ccccc1)NC(=O)c1cnccn1)B(O)O (configuration not stated) + NC1CC1c1ccc(-c2cccc(O)c2)cc1 | 106%

Same assay, conditions: second compound 1 µM; first compound 0.001 µM; stronger effect = lower value

Compound | viability, T/C
Cn1ncnc1C1c2n[nH]c(=O)c3cc(F)cc(c23)NC1c1ccc(F)cc1 (configuration not stated) + NC1CCC(NC2CC2c2ccccc2)CC1 | 94.5%
CC(C)CC(NC(=O)C(Cc1ccccc1)NC(=O)c1cnccn1)B(O)O (configuration not stated) + NC1CC1c1ccc(-c2cccc(O)c2)cc1 | 18.4%

Same assay, conditions: second compound 1 µM; first compound 0.00316 µM; stronger effect = lower value

Compound | viability, T/C
Cn1ncnc1C1c2n[nH]c(=O)c3cc(F)cc(c23)NC1c1ccc(F)cc1 (configuration not stated) + NC1CCC(NC2CC2c2ccccc2)CC1 | 87%
CC(C)CC(NC(=O)C(Cc1ccccc1)NC(=O)c1cnccn1)B(O)O (configuration not stated) + NC1CC1c1ccc(-c2cccc(O)c2)cc1 | 2.67%
O=C(C=Cn1cnc(-c2cc(C(F)(F)F)cc(C(F)(F)F)c2)n1)NNc1cnccn1 + NC1CCC(NC2CC2c2ccccc2)CC1 | 62.4%
COc1cc(Nc2ncc3c(n2)-c2ccc(Cl)cc2C(c2c(F)cccc2OC)=NC3)ccc1C(=O)O + NC1CCC(NC2CC2c2ccccc2)CC1 | 80.2%

Same assay, conditions: second compound 1 µM; first compound 0.01 µM; stronger effect = lower value

Compound | viability, T/C
Cn1ncnc1C1c2n[nH]c(=O)c3cc(F)cc(c23)NC1c1ccc(F)cc1 (configuration not stated) + NC1CCC(NC2CC2c2ccccc2)CC1 | 84.2%
CC(C)CC(NC(=O)C(Cc1ccccc1)NC(=O)c1cnccn1)B(O)O (configuration not stated) + NC1CC1c1ccc(-c2cccc(O)c2)cc1 | 0.79%
O=C(C=Cn1cnc(-c2cc(C(F)(F)F)cc(C(F)(F)F)c2)n1)NNc1cnccn1 + NC1CCC(NC2CC2c2ccccc2)CC1 | 39.2%
COc1cc(Nc2ncc3c(n2)-c2ccc(Cl)cc2C(c2c(F)cccc2OC)=NC3)ccc1C(=O)O + NC1CCC(NC2CC2c2ccccc2)CC1 | 78.3%

Same assay, conditions: second compound 1 µM; first compound 0.0316 µM; stronger effect = lower value

Compound | viability, T/C
Cn1ncnc1C1c2n[nH]c(=O)c3cc(F)cc(c23)NC1c1ccc(F)cc1 (configuration not stated) + NC1CCC(NC2CC2c2ccccc2)CC1 | 78.5%
CC(C)CC(NC(=O)C(Cc1ccccc1)NC(=O)c1cnccn1)B(O)O (configuration not stated) + NC1CC1c1ccc(-c2cccc(O)c2)cc1 | 0.63%
O=C(C=Cn1cnc(-c2cc(C(F)(F)F)cc(C(F)(F)F)c2)n1)NNc1cnccn1 + NC1CCC(NC2CC2c2ccccc2)CC1 | 34.1%
COc1cc(Nc2ncc3c(n2)-c2ccc(Cl)cc2C(c2c(F)cccc2OC)=NC3)ccc1C(=O)O + NC1CCC(NC2CC2c2ccccc2)CC1 | 73.4%

Same assay, conditions: second compound 1 µM; first compound 0.1 µM; stronger effect = lower value

Compound | viability, T/C
Cn1ncnc1C1c2n[nH]c(=O)c3cc(F)cc(c23)NC1c1ccc(F)cc1 (configuration not stated) + NC1CCC(NC2CC2c2ccccc2)CC1 | 81.3%
CC(C)CC(NC(=O)C(Cc1ccccc1)NC(=O)c1cnccn1)B(O)O (configuration not stated) + NC1CC1c1ccc(-c2cccc(O)c2)cc1 | 0.4%
O=C(C=Cn1cnc(-c2cc(C(F)(F)F)cc(C(F)(F)F)c2)n1)NNc1cnccn1 + NC1CCC(NC2CC2c2ccccc2)CC1 | 27.1%
COc1cc(Nc2ncc3c(n2)-c2ccc(Cl)cc2C(c2c(F)cccc2OC)=NC3)ccc1C(=O)O + NC1CCC(NC2CC2c2ccccc2)CC1 | 55.5%

Same assay, conditions: second compound 1 µM; first compound 0.316 µM; stronger effect = lower value

Compound | viability, T/C
O=C(C=Cn1cnc(-c2cc(C(F)(F)F)cc(C(F)(F)F)c2)n1)NNc1cnccn1 + NC1CCC(NC2CC2c2ccccc2)CC1 | 21.9%
COc1cc(Nc2ncc3c(n2)-c2ccc(Cl)cc2C(c2c(F)cccc2OC)=NC3)ccc1C(=O)O + NC1CCC(NC2CC2c2ccccc2)CC1 | 57.1%

Same assay, conditions: second compound 1 µM; first compound 1 µM; stronger effect = lower value

Compound | viability, T/C
O=C(C=Cn1cnc(-c2cc(C(F)(F)F)cc(C(F)(F)F)c2)n1)NNc1cnccn1 + NC1CCC(NC2CC2c2ccccc2)CC1 | 21.2%
COc1cc(Nc2ncc3c(n2)-c2ccc(Cl)cc2C(c2c(F)cccc2OC)=NC3)ccc1C(=O)O + NC1CCC(NC2CC2c2ccccc2)CC1 | 40.9%
